According to US8207121B2, “Sensitization to another anticancer therapy and/or amelioration of a side effect of another anticancer therapy by treatment with a GST-activated anticancer compound” (Telik, Inc., priority 2004, dated 2012):
Where a name gives a salt, the structure may show the parent alone. Read-outs that look alike come from different tables or passages of the source.

What was measured:
[1] = target: T1, GST M1a-1a (Homo sapiens, UniProt P09488); conditions: cited from earlier work
T1 sequence (P09488 1-218): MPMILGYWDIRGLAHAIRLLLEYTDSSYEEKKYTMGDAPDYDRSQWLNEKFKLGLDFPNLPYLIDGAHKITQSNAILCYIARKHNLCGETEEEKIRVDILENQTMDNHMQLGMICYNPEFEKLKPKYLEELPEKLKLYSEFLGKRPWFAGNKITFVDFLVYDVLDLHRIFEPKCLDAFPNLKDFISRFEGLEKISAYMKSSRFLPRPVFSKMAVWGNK

[2] = target: GST P1-1 (Homo sapiens, UniProt P09211); conditions: cited from earlier work
GST P1-1, sequence (P09211 2-210 limits assumed): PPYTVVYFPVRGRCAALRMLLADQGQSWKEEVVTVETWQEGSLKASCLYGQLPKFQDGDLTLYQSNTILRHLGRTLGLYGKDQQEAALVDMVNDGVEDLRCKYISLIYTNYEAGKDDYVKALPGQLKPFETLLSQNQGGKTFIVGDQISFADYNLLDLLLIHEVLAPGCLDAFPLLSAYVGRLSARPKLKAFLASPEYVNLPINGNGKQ

[3] = target: T2, GST A1-1 (Homo sapiens, UniProt P08263); conditions: cited from earlier work
T2 sequence (P08263 1-222): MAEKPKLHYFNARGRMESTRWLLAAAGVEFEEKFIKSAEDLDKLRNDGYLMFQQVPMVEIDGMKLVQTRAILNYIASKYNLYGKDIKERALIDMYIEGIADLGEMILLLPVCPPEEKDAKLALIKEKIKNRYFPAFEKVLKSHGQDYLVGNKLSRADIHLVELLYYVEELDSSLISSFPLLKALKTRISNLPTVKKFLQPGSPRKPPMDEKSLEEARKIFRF

[4] = Clinical observation: side effects of carboplatin therapy in ovarian cancer patients; type: in vivo, human
From the text: Ovarian cancer patients treated with carboplatin-containing regimens underwent repeated cycles of alopecia corresponding to the administration of the carboplatin.

[5] = system: M7609 xenografts; conditions: xenografts engineered to have high, medium, and low GST P1-1; cited from earlier work
[6] = system: ovarian, breast, non-small cell lung, and colorectal cancers; conditions: cited from earlier work
[7] = system: OVCAR-3 cells; experiment: Cytotoxicity assay (CellTiter-Glo), OVCAR-3; type: cell-based; conditions: Homo sapiens
Procedure: Cancer cell line. The human cancer cell line OVCAR-3 (ovarian adenocarcinoma) was obtained from the National Cancer Institute, Bethesda, Md., U.S.A.
(§1) A paclitaxel-resistant derivative cell line OVCAR-PR was developed from the human ovarian cancer cell line OVCAR-3 by growing OVCAR-3 cells in gradually increasing concentrations (up to 5 nM) of paclitaxel. A canfosfamide-modified derivative cell line OVCAR-TLK was developed by growing OVCAR-3 cells in gradually increasing concentrations (up to 6.5 μM) of canfosfamide. To maintain the phenotypes of the cell lines, the cells were treated with the compounds at weekly intervals. Cells were grown in compound-free media for 24 hours before any experiments.
(§2) Cytotoxicity assay. Log-phase cells were seeded in 96-well plates and incubated with the diluted compound or solvent for 2-3 doubling times. The extent of cell growth was quantitated using the CellTiter-Glo assay (Promega Corporation, Madison, Wis., U.S.A.), used in accordance with the assay kit directions. The amount of ATP in the lysate, which corresponds to the number of viable cells, was quantitated using a luminometer. All assays were conducted in triplicate wells, with solvent control. The extent of cell growth was expressed as a percentage of the signal from the solvent control wells. The mean of the triplicate wells was computed and IC50 determined using PrismGraph.

[8] = system: OVCAR-PR cells; experiment: Cytotoxicity assay (CellTiter-Glo), paclitaxel-resistant OVCAR-PR; type: cell-based, human; conditions: for IC50: Homo sapiens; for increase in resistance: IC50 in OVCAR-PR cells versus OVCAR-3 cells
Procedure: as §1, §2

[9] = system: OVCAR-TLK cells; experiment: Cytotoxicity assay (CellTiter-Glo), canfosfamide-modified OVCAR-TLK; type: cell-based, human
Procedure: as §1, §2
Cell doubling time. 1.5×10^4 cells were seeded in a 25-mL flask. The cells were grown for four days and the number of viable cells was determined by Trypan Blue staining and manual counting using a hemocytometer. The assay was conducted in triplicate at each time point. The times for two cell doublings for OVCAR-3 and OVCAR-TLK cells were approximately 3.5 and 5.5 days, respectively.

[10] = system: M6709 human colon carcinoma cell line selected for resistance to doxorubicin; conditions: line overexpresses GST P1-1; cited from earlier work
[11] = system: MCF-7 human breast carcinoma cell line selected for resistance to cyclophosphamide; conditions: line overexpresses GST P1-1; cited from earlier work
[12] = system: cell culture and tumor biopsies; conditions: cited from earlier work

## N[C@@H](CCC(=O)N[C@@H](CS(=O)(=O)CCOP(=O)(N(CCCl)CCCl)N(CCCl)CCCl)C(=O)NCC(=O)O)C(=O)O [TLK231, L-γ-glutamyl-3-[[2-[[bis[bis(2-chloroethyl)amino]phosphinyl]oxy]ethyl]sulfonyl]-L-alanyl-glycine]
[1]
  activation by GST isoenzyme: activated

## N[C@@H](CCC(=O)N[C@@H](Cc1cccc(S(=O)(=O)CCOP(=O)(N(CCCl)CCCl)N(CCCl)CCCl)c1)C(=O)NCC(=O)O)C(=O)O [TLK(296, L-γ-glutamyl-3-[[2-[[bis[bis(2-chloroethyl)amino]phosphinyl]oxy]ethyl]sulfonyl]-L-phenylalanyl-glycine]
[2]
  activation by GST isoenzyme: activated

## C[C@@](NC(=O)[C@H](CS(=O)(=O)CCOP(=O)(N(CCCl)CCCl)N(CCCl)CCCl)NC(=O)CC[C@H](N)C(=O)O)(C(=O)O)c1ccccc1 [TLK(303, L-γ-glutamyl-3-[[2-[[bis[bis(2-chloroethyl)-amino]phosphinyl]oxy]ethyl]sulfonyl]-L-alanyl-2-phenyl-(2S)-alanine]
[3]
  activation by GST isoenzyme: activated

## N[C@@H](CCC(=O)N[C@@H](CS(=O)(=O)CCOP(=O)(N(CCCl)CCCl)N(CCCl)CCCl)C(=O)N[C@@H](C(=O)O)c1ccccc1)C(=O)O [canfosfamide hydrochloride]
[4]; carboplatin AUC 5 or 6 mg/mL·min with canfosfamide hydrochloride 500, 750 and 960 mg/m^2
  recurrence of alopecia with carboplatin treatment: did not experience the same recurrence of alopecia
[4]; carboplatin in combination with canfosfamide hydrochloride
  hematologic and neurologic side effects of carboplatin: similarly ameliorated
[5]
  potency versus level of GST P1-1: positively correlated with the level of GST P1-1
[6]; treated patients
  hematological toxicity in patients: very low incidence of clinically significant hematological toxicity

## N[C@@H](CCC(=O)N[C@@H](CS(=O)(=O)CCOP(=O)(N(CCCl)CCCl)N(CCCl)CCCl)C(=O)N[C@@H](C(=O)O)c1ccccc1)C(=O)O [canfosfamide, L-γ-glutamyl-3-[[2-[[bis[bis(2-choroethyl)-amino]phosphinyl]oxy]ethyl]sulfonyl]-L-alanyl-2-phenyl-(2R)-glycine]
[7]; OVCAR-3
  IC50: 1300 nM
[8]
  IC50: 1600 nM
  increase in resistance: 1.2 fold
[9]; treated for approximately two doubling times
  sensitivity to canfosfamide, OVCAR-3 versus OVCAR-TLK: approximately equally sensitive
[10]
  potency versus parental cell line: more potent
[11]
  potency versus parental cell line: more potent
[12]
  cross-resistance to platinum, paclitaxel, doxorubicin and gemcitabine: non-cross-resistant
[2]
  activation by GST isoenzyme: activated
[3]
  activation by GST isoenzyme: activated
[6]; colorectal and breast cancer
  clinical activity: single agent antitumor activity
[6]; patients with non-small cell lung cancer and ovarian cancer
  clinical activity: significant single agent antitumor activity and improvement in survival

## CC(=O)O[C@H]1C(=O)[C@@]2(C)[C@H]([C@H](OC(=O)c3ccccc3)[C@]3(O)C[C@H](OC(=O)[C@H](O)[C@@H](NC(=O)c4ccccc4)c4ccccc4)C(C)=C1C3(C)C)[C@]1(OC(C)=O)CO[C@@H]1C[C@@H]2O [paclitaxel]
[7]; OVCAR-3 cells, read-out: IC50
  IC50: 1.3 nM
[8]; OVCAR-PR cells, read-out: IC50
  IC50: 49 nM
[8]
  increase in resistance: more than 35 fold
[8]; OVCAR-PR cells first treated overnight with 4 μM canfosfamide
  decrease of IC50 for paclitaxel after canfosfamide pretreatment: approximately 3 fold
[9]; equal treatment times
  IC50s for paclitaxel, OVCAR-3 versus OVCAR-TLK: approximately the same
[9]; treatment times adjusted for doubling times (approximately two doubling times)
  IC50 for paclitaxel lower in OVCAR-TLK than in OVCAR-3 cells: about 2 fold
